Reference: article PMC12040169 (PLOS Biology, 2025)

test: in vitro; details: human, hela cells, % viability

Compound | viability at 28.5 h, 10 µM
CCN1C(=O)CC2(C1=O)C(=O)N(CC)c1ccc(C)cc12 (centres unmarked) [CBK075140] | 99.4%
COc1ccc2c(c1)C1(CC(=O)N(C)C1=O)C(=O)N2C (centres unmarked) [CBK075146] | 115%
COc1ccc2c(c1)C1(CC(=O)N(CCC3CCCCC3)C1=O)C(=O)N2C (centres unmarked) [CBK075147] | 120%
COc1ccc2c(c1)C1(CC(=O)N(Cc3ccc(OC)c(OC)c3)C1=O)C(=O)N2C (centres unmarked) [CBK075157] | 94.4%
C=CCN1C(=O)CC2(C1=O)C(=O)N(C)c1ccc(OC)cc12 (centres unmarked) [CBK075158] | 101%
C=CCN1C(=O)C2(CC(=O)N(CCC3CCCCC3)C2=O)c2ccccc21 (centres unmarked) [CBK075160] | 107%
CN1C(=O)CC2(C1=O)C(=O)N(Cc1ccccc1)c1ccc(F)cc12 (centres unmarked) [CBK075163] | 90.5%
COc1ccc2c(c1)C1(CC(=O)N(CCOc3ccccc3)C1=O)C(=O)N2C (centres unmarked) [CBK075168] | 95.2%
COc1ccc(CN2C(=O)CC3(C2=O)C(=O)N(Cc2ccccc2)c2ccc(F)cc23)cc1OC (centres unmarked) [CBK075174] | 108%
O=C1CC2(C(=O)N1CCC1CCCCC1)C(=O)N(Cc1ccccc1)c1ccc(F)cc12 (centres unmarked) [CBK075175] | 91%
CNC(=O)CN1C(=O)CC2(C1=O)C(=O)N(C)c1ccc(OC)cc12 (centres unmarked) [CBK075190] | 91.5%
COc1cccc(CCN2C(=O)CC3(C2=O)C(=O)N(C)c2ccc(OC)cc23)c1 (centres unmarked) [CBK075191] | 94.6%
COc1ccc2c(c1)C1(CC(=O)N(CC3CCCCC3)C1=O)C(=O)N2C (centres unmarked) [CBK075201] | 100%
CCN1C(=O)C2(CC(=O)N(CC3CCCCC3)C2=O)c2cc(C)ccc21 (centres unmarked) [CBK075216] | 98.2%
C=CCN1C(=O)C2(CC(=O)N(CC(=O)N(C)C)C2=O)c2cc(OC)ccc21 (centres unmarked) [CBK075227] | 92.3%
CN1C(=O)C2(CC(=O)N(CCC3CCCCC3)C2=O)c2cc(Cl)ccc21 (centres unmarked) [CBK075231] | 92%
CN(C)C(=O)CN1C(=O)CC2(C1=O)C(=O)N(C)c1ccc(Cl)cc12 (centres unmarked) [CBK075232] | 90.2%
CCN1C(=O)C2(CC(=O)N(CCOC)C2=O)c2cc(Cl)ccc21 (centres unmarked) [CBK075244] | 121%
CN1C(=O)CC2(C1=O)C(=O)N(C)c1ccc(F)cc12 (centres unmarked) [CBK075290] | 105%

Compound | viability at 28.5 h, 10 µM
C=CCN1C(=O)C2(CC(=O)N(CCCN(C)S(C)(=O)=O)C2=O)c2cc(F)ccc21 (centres unmarked) [CBK075319] | 100%
COCCN1C(=O)C2(CC(=O)N(CCc3scnc3C)C2=O)c2cc(Cl)ccc21 (centres unmarked) [CBK075321] | 93.6%
COCCN1C(=O)C2(CC(=O)N(CCOc3ccccc3)C2=O)c2ccccc21 (centres unmarked) [CBK075322] | 98.5%
COCCN1C(=O)C2(CC(=O)N(CC(=O)C(C)(C)C)C2=O)c2ccccc21 (centres unmarked) [CBK075324] | 118%
CN(C)C(=O)CCCN1C(=O)CC2(C1=O)C(=O)N(C)c1ccc(F)cc12 (centres unmarked) [CBK075380] | 103%
COCCN1C(=O)C2(CC(=O)N(C)C2=O)c2ccccc21 (centres unmarked) [CBK075387] | 102%
CNC(=O)CN1C(=O)CC2(C1=O)C(=O)N(CCOC)c1ccc(C)cc12 (centres unmarked) [CBK075401] | 97.1%
CN1C(=O)CC2(C1=O)C(=O)N(CCCCOc1ccccc1)c1ccc(F)cc12 (centres unmarked) [CBK075408] | 96%
C=CCN1C(=O)CC2(C1=O)C(=O)N(CCn1cnc3c1c(=O)n(C)c(=O)n3C)c1ccc(Cl)cc12 (centres unmarked) [CBK075410] | 94.8%
C=CCN1C(=O)CC2(C1=O)C(=O)N(CCCn1c(=O)n(C)c3ccccc31)c1ccc(Cl)cc12 (centres unmarked) [CBK075411] | 94.6%
CN1C(=O)CC2(C1=O)C(=O)N(CC(=O)c1ccccc1)c1ccc(F)cc12 (centres unmarked) [CBK075420] | 95.4%
COCCN1C(=O)C2(CC(=O)N(CC(=O)N(C)C)C2=O)c2cc(F)ccc21 (centres unmarked) [CBK075428] | 104%
COc1ccccc1OCCCN1C(=O)C2(CC(=O)N(C)C2=O)c2cc(F)ccc21 (centres unmarked) [CBK075430] | 88.2%
C=CCN1C(=O)CC2(C1=O)C(=O)N(CCCN(C)S(C)(=O)=O)c1ccc(Cl)cc12 (centres unmarked) [CBK075432] | 97.3%
C=CCN1C(=O)CC2(C1=O)C(=O)N(Cc1nnc(-c3ccc(C)cc3)o1)c1ccc(Cl)cc12 (centres unmarked) [CBK075434] | 104%
CN1C(=O)CC2(C1=O)C(=O)N(CCCn1c(=O)n(C)c3ccccc31)c1ccc(F)cc12 (centres unmarked) [CBK075441] | 110%
CN1C(=O)CC2(C1=O)C(=O)N(Cc1nc(-c3ccc(Cl)cc3)no1)c1ccc(F)cc12 (centres unmarked) [CBK075442] | 87.8%
CN1C(=O)CC2(C1=O)C(=O)N(CCN1C(=O)c3ccccc3C1=O)c1ccc(F)cc12 (centres unmarked) [CBK075451] | 89.5%
Cc1ccc(-c2nnc(CN3C(=O)C4(CC(=O)N(C)C4=O)c4cc(F)ccc43)o2)cc1 (centres unmarked) [CBK075453] | 110%

Compound | viability at 28.5 h, 10 µM
CN1C(=O)C2(CC(=O)N(CCC3CCCCC3)C2=O)c2ccccc21 (centres unmarked) [CBK075461] | 109%
C=CCN1C(=O)CC2(C1=O)C(=O)N(C)c1ccccc12 (centres unmarked) [CBK075472] | 99%
CCN1C(=O)CC2(C1=O)C(=O)N(CCCOc1ccccc1OC)c1ccccc12 (centres unmarked) [CBK075498] | 109%
CCN1C(=O)CC2(C1=O)C(=O)N(Cc1cccc(CN3C(=O)CCC3=O)c1)c1ccccc12 (centres unmarked) [CBK075508] | 104%
CN1C(=O)CC2(C1=O)C(=O)N(CCCOc1ccc(F)cc1)c1ccccc12 (centres unmarked) [CBK075513] | 108%
CCN1C(=O)CC2(C1=O)C(=O)N(CCCOc1ccccc1)c1ccc(OC)cc12 (centres unmarked) [CBK075585] | 98%
CCN1C(=O)CC2(C1=O)C(=O)N(Cc1nnc(-c3ccc(C)cc3)o1)c1ccc(OC)cc12 (centres unmarked) [CBK075586] | 90.4%
CCN1C(=O)CC2(C1=O)C(=O)N(CCCOc1ccc(Cl)cc1)c1ccc(C)cc12 (centres unmarked) [CBK075648] | 109%
C=CCN1C(=O)CC2(C1=O)C(=O)N(CCCn1c(=O)c3c(ncn3C)n(C)c1=O)c1ccc(OC)cc12 (centres unmarked) [CBK075701] | 93.6%
O=C1CCC(=O)N1CCN1C(=O)C2(CC(=O)N(Cc3ccccc3)C2=O)c2ccccc21 (centres unmarked) [CBK075705] | 101%
Cn1cnc2c1c(=O)n(CCCN1C(=O)C3(CC(=O)N(Cc4ccccc4)C3=O)c3cc(F)ccc31)c(=O)n2C (centres unmarked) [CBK075717] | 76%
COc1ccc2c(c1)C1(CC(=O)N(CC(=O)N(C)C)C1=O)C(=O)N2CCCN(C)S(C)(=O)=O (centres unmarked) [CBK075889] | 118%
COc1ccc2c(c1)C1(CC(=O)N(CC(=O)N(C)C)C1=O)C(=O)N2CC(=O)c1ccccc1 (centres unmarked) [CBK075913] | 96.9%
COc1ccc2c(c1)C1(CC(=O)N(CC(=O)N(C)C)C1=O)C(=O)N2Cc1ccc2ccccc2n1 (centres unmarked) [CBK075923] | 93.7%
COc1cc(OC)nc(CN2C(=O)C3(CC(=O)N(CCCN4C(=O)c5ccccc5C4=O)C3=O)c3cc(C)ccc32)n1 (centres unmarked) [CBK075992] | 91.5%
COc1cc(OC)nc(CN2C(=O)CC3(C2=O)C(=O)N(CCCN(C)C(=O)c2ccco2)c2ccc(F)cc23)n1 (centres unmarked) [CBK076006] | 85.6%
COc1cccc(CN2C(=O)CC3(C2=O)C(=O)N(Cc2ccc4ccccc4n2)c2ccccc23)c1 (centres unmarked) [CBK076016] | 96.2%
O=C1CCC(=O)N1CCN1C(=O)C2(CC(=O)N(CCC(F)(F)F)C2=O)c2ccccc21 (centres unmarked) [CBK076031] | 105%
